Experimental data as given in patent US20130005760A1, “HETEROCYCLIC COMPOUND HAVING AZOLE GROUP” (Toyama Chemical Co., Ltd., priority 2010, published 2013).

Test system: not listed separately
Test: Pharmacokinetic study in mice (oral administration)
Format: in vivo
Conditions: mouse, serum, 25 mg/kg, male ICR mice, suspension in 0.5% methylcellulose 2.5 mg/mL at 10 mL/kg, 12 hours after administration, HPLC, read-out: serum concentration of the test compound
Procedure: The compounds of Examples 2, 4, 5, 12 and 16 were used as test compounds.
A test compound suspended in 0.5% methylcellulose (2.5 mg/mL) was orally administered at 10 mL/kg to male ICR mice (6 week-old, three animals in a group). At 12 hours after the administration, the blood of the mice was collected, and the concentrations of the test compound in the serum were measured by HPLC.
For `Cc1noc(C)c1-c1ccc2c(=O)cc(C)n(Cc3ccccc3N)c2c1` [Example 5, 1-(2-aminobenzyl)-7-(3,5-dimethylisoxazol-4-yl)-2-methyl-1,4-dihydro-4-oxoquinoline], the concentration at 12 h was no less than 500 ng/mL. In the case of `CCc1cc(=O)c2ccc(-c3c(C)noc3C)cc2n1-c1cc(N)c(F)cc1F` [Example 16, 1-(5-amino-2,4-difluorophenyl)-7-(3,5-dimethylisoxazol-4-yl)-2-ethyl-1,4-dihydro-4-oxoquinoline], the concentration at 12 h is reported as no less than 500 ng/mL.

Test system: HIV-1 (JRCSF)
Test: Anti-HIV activity (Test Example 1-2): infected MaRBLE cells seeded on plate containing drug solution, luciferase readout after 7 days
Format: cell-based
Conditions: Human immunodeficiency virus 1, 168 h, MaRBLE cells infected with HIV-1 (JRCSF), 7 days culture, firefly luciferase, FORECAST linear regression (Excel)
Procedure: (§1) This example was carried out by reference to Journal of Clinical Microbiology, 2007, Vol. 45, pages 477 to 487.
(§2) An anti-HIV activity was evaluated using MaRBLE cells obtained by transfection of HPB-M(a) derived from human T-lymphocytes with a luciferase gene of which expressions were regulated by HIV-1 LTR and a CCR5 gene etc.
A plate containing a drug solution was made by dispensing a fresh culture medium or an appropriately diluted test compound to a 96-well plate.
MaRBLE cells were suspended in RPMI1640 containing 10% FCS (fetal calf serum) and penicillin/streptomycin. After infected with HIV-1 (JRCSF), the cells were seeded on the above-described plate containing a drug solution ([…] cells/well). As a control group, the same number of uninfected cells were seeded.
After culturing at 37° C. under 5% CO2 for 7 days, an intracellular luciferase activity was measured using Dual-Glo Luciferase assay system (Promega).
(§3) The virus growth rate was calculated by the following equation.
(§4) Virus growth rate (%)=(A/B)×100
(§5) A=(Firefly luciferase activity in the well with the compound)−(Firefly luciferase activity of uninfected cells)
(§6) B=(Firefly luciferase activity in the well without the compound)−(Firefly luciferase activity of uninfected cells)
The IC50 of the compound was calculated by plotting the concentration with the logarithm and by plotting the virus growth rate with a real number, using the FORECAST function (linear regression technique) of Microsoft Office Excel 2003.
With `Cc1noc(C)c1-c1cc2c(cc1F)c(=O)cc(C)n2Cc1ccccc1N` [Example 13, 1-(2-aminobenzyl)-7-(3,5-dimethylisoxazol-4-yl)-6-fluoro-2-methyl-1,4-dihydro-4-oxoquinoline] the IC50 was 2.9 nM. Work on `Cc1noc(C)c1-c1ccc2c(=O)cc(C)n(Cc3cc(F)cc(F)c3N)c2c1` [Example 14, 1-(2-amino-3,5-difluorobenzyl)-7-(3,5-dimethylisoxazol-4-yl)-2-methyl-1,4-dihydro-4-oxoquinoline] yielded an IC50 of 0.55 nM. With `Cc1noc(C)c1-c1ccc2c(=O)cc(C)n(-c3cc(N)c(S(C)(=O)=O)cc3F)c2n1` [Example 33, 1-(5-amino-2-fluoro-4-(methylsulfonyl)phenyl)-7-(3,5-dimethylisoxazol-4-yl)-2-methyl-1,4-dihydro-4-oxo-1,8-naphthyridine] the IC50 was 0.87 nM. `Cc1noc(C)c1-c1ccc2c(=O)cc(C)n(Cc3ccc(Cl)c(F)c3N)c2c1` [Example 35, 1-(2-amino-4-chloro-3-fluorobenzyl)-7-(3,5-dimethylisoxazol-4-yl)-2-methyl-1,4-dihydro-4-oxoquinoline] showed an IC50 of 2.6 nM.

Test system: HIV-1 (JRCSF)
Test: Anti-HIV activity (Test Example 1-1): MaRBLE cells infected with HIV-1 (JRCSF), compound added 2 h after seeding, luciferase readout after 7 days
Format: cell-based
Conditions: Human immunodeficiency virus 1, 168 h, 7 days culture, firefly luciferase, virus growth rate, 4 parameter Logistic Model (XLfit 4)
Procedure: as §1, §2
The MaRBLE cells were suspended in RPMI1640 containing 10% FCS (fetal calf serum) and penicillin/streptomycin. After infected with HIV-1 (JRCSF), the cells were seeded on a 96-well plate (1×10^5 cells/well). As a control group, the same number of uninfected cells were seeded.
After incubating the plate under the condition of 37° C. and 5% CO2 for 2 hours, a fresh culture medium or a culture medium containing an appropriately diluted test compound was added to each well.
After further culturing at 37° C. under 5% CO2 for 7 days, an intracellular luciferase activity was measured using Dual-Glo Luciferase assay system (Promega).
as §3, §4, §5, §6
The IC50 of the compound was calculated by applying virus growth rates of various concentrations to 4 parameter Logistic Model of curve-fitting software XLfit 4.
Work on `Cc1noc(C)c1-c1ccc2c(=O)cc(C)n(Cc3ccccc3N)c2c1` [Example 5-2, 1-(2-aminobenzyl)-7-(3,5-dimethylisoxazol-4-yl)-2-methyl-1,4-dihydro-4-oxoquinoline.½ pinacol adduct] yielded an IC50 of 0.27 nM. Work on `Cc1noc(C)c1-c1ccc2c(=O)cc(CO)n(Cc3ccccc3N)c2c1` [Example 7, 1-(2-aminobenzyl)-7-(3,5-dimethylisoxazol-4-yl)-2-hydroxymethyl-1,4-dihydro-4-oxoquinoline] yielded an IC50 of 0.2 nM. For `Cc1noc(C)c1-c1ccc2c(=O)cc(N)n(-c3ccc(F)cc3F)c2c1` [Example 10, 2-amino-1-(2,4-difluorophenyl)-7-(3,5-dimethylisoxazol-4-yl)-1,4-dihydro-4-oxoquinoline], the IC50 was 2.8 nM. For `Cc1noc(C)c1-c1ccc2c(=O)cc(C)n(Cc3cccc(F)c3N)c2c1` [Example 11, 1-(2-amino-3-fluorobenzyl)-7-(3,5-dimethylisoxazol-4-yl)-2-methyl-1,4-dihydro-4-oxoquinoline], the IC50 was 0.62 nM. `CCc1cc(=O)c2ccc(-c3c(C)noc3C)cc2n1-c1cc(N)c(F)cc1F` [Example 16, 1-(5-amino-2,4-difluorophenyl)-7-(3,5-dimethylisoxazol-4-yl)-2-ethyl-1,4-dihydro-4-oxoquinoline] gave an IC50 of 7.2 nM. In the case of `CCc1cc(=O)c2ccc(-c3c(C)noc3C)cc2n1Cc1cccc(F)c1N` [Example 17, 1-(2-amino-3-fluorobenzyl)-7-(3,5-dimethylisoxazol-4-yl)-2-ethyl-1,4-dihydro-4-oxoquinoline], the IC50 is reported as 0.26 nM. Work on `Cc1noc(C)c1-c1ccc2c(=O)cc(C)n(Cc3cccnc3N)c2c1` [Example 18, 1-((2-aminopyridin-3-yl)methyl)-7-(3,5-dimethylisoxazol-4-yl)-2-methyl-1,4-dihydro-4-oxoquinoline] yielded an IC50 of 3.5 nM. For `Cc1noc(C)c1-c1ccc2c(=O)cc(CO)n(-c3cc(N)c(F)cc3F)c2c1` [Example 19, 1-(5-amino-2,4-difluorophenyl)-7-(3,5-dimethylisoxazol-4-yl)-2-(hydroxymethyl)-1,4-dihydro-4-oxoquinoline], the IC50 was 1.7 nM. `Cc1noc(C)c1-c1ccc2c(=O)cc(N)n(-c3cc(N)c(F)cc3F)c2c1` [Example 20, 2-amino-1-(5-amino-2,4-difluorophenyl)-7-(3,5-dimethylisoxazol-4-yl)-1,4-dihydro-4-oxoquinoline] gave an IC50 of 2.6 nM. Work on `Cc1noc(C)c1-c1ccc2c(=O)cc(CO)n(-c3ccc(F)cc3F)c2c1` [Example 22, 1-(2,4-difluorophenyl)-7-(3,5-dimethylisoxazol-4-yl)-2-hydroxymethyl-1,4-dihydro-4-oxoquinoline] yielded an IC50 of 0.6 nM. Compound `Cc1noc(C)c1-c1ccc2c(=O)cc(CO)n(-c3cc(N)c(F)cc3F)c2n1` [Example 24, 1-(5-amino-2,4-difluorophenyl)-7-(3,5-dimethylisoxazol-4-yl)-2-hydroxymethyl-1,4-dihydro-4-oxo-1,8-naphthyridine] has an IC50 of 0.54 nM. In the case of `Cc1noc(C)c1-c1ccc2c(=O)cc(C)n(-c3ccc(F)cc3F)c2n1` [Example 25, 1-(2,4-difluorophenyl)-7-(3,5-dimethylisoxazol-4-yl)-2-methyl-1,4-dihydro-4-oxo-1,8-naphthyridine], the IC50 is reported as 0.64 nM. `Cc1noc(C)c1-c1ccc2c(=O)cc(CO)n(-c3ccc(F)cc3F)c2n1` [Example 26, 1-(2,4-difluorophenyl)-7-(3,5-dimethylisoxazol-4-yl)-2-hydroxymethyl-1,4-dihydro-4-oxo-1,8-naphthyridine] showed an IC50 of 0.23 nM. With `Cc1noc(C)c1-c1ccc2c(=O)cc(CN)n(-c3ccc(F)cc3F)c2n1` [Example 27, 2-(aminomethyl)-1-(2,4-difluorophenyl)-7-(3,5-dimethylisoxazol-4-yl)-1,4-dihydro-4-oxo-1,8-naphthyridine] the IC50 was 0.3 nM. `Cc1noc(C)c1-c1ccc2c(=O)cc(N)n(-c3ccc(F)cc3F)c2n1` [Example 28, 2-amino-1-(2,4-difluorophenyl)-7-(3,5-dimethylisoxazol-4-yl)-1,4-dihydro-4-oxo-1,8-naphthyridine] gave an IC50 of 0.3 nM. With `Cc1noc(C)c1-c1ccc2c(=O)cc(C)n(Cc3ccccc3N)c2n1` [Example 29, 1-(2-aminobenzyl)-7-(3,5-dimethylisoxazol-4-yl)-2-methyl-1,4-dihydro-4-oxo-1,8-naphthyridine] the IC50 was 1.2 nM. `Cc1noc(C)c1-c1ccc2c(=O)cc(C)n(-c3cc(N)c(S(C)(=O)=O)cc3F)c2c1` [Example 31, 1-(5-amino-2-fluoro-4-(methylsulfonyl)phenyl)-7-(3,5-dimethylisoxazol-4-yl)-2-methyl-1,4-dihydro-4-oxoquinoline] gave an IC50 of 1.8 nM. For `Cc1noc(C)c1-c1ccc2c(=O)cc(C)n(-c3cc(N)c(Cl)cc3F)c2n1` [Example 34, 1-(5-amino-4-chloro-2-fluorophenyl)-7-(3,5-dimethylisoxazol-4-yl)-2-methyl-1,4-dihydro-4-oxo-1,8-naphthyridine], the IC50 was 0.48 nM.
